Here are results for two molecules from ChEMBL document CHEMBL5608182, “Synthesis and evaluation of neuroactive steroids with novel pharmacophore at C-21 let identify a compound with advantageous PK profile and higher EC50 and Emax as PAM on GABAA receptor” (Eur J Med Chem, 2024).

One data set deals with T1, Cytochrome P450 1A2 (Homo sapiens, UniProt P05177).
T1 sequence (P05177 whole entry): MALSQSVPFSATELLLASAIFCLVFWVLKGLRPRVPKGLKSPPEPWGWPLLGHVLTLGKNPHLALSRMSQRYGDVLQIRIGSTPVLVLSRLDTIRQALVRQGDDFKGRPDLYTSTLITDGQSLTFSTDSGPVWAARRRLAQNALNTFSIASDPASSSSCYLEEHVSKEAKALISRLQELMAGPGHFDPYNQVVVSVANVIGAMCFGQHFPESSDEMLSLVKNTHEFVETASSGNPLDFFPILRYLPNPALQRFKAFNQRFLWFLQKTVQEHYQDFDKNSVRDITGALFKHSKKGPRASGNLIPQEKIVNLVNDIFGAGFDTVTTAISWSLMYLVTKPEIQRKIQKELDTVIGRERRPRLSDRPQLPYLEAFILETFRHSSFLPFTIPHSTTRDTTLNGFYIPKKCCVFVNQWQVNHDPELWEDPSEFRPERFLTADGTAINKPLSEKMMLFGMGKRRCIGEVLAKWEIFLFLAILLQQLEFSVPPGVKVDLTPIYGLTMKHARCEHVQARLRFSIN
The data set is described as follows: Inhibition of CYP1A2 (unknown origin). The format is ADME.

For data set [1], the system named is Rattus norvegicus. The data set is described as follows: Antiseizure activity in PTZ-induced male Sprague-Dawley rat acute seizure model assessed as increase in latency to tonic seizures at 12.2 micromol/kg, po pretreated for 1 hr followed by PTZ addition and measured after 60 mins (reference value: 77 +/- 13.4 sec). The data set is classed as functional. Conditions: dose 12.2 µmol/kg, time 120 min, 2 h.

Data set [2] relates to Rattus norvegicus. The data set is described as follows: Antiseizure activity in PTZ-induced male Sprague-Dawley rat acute seizure model assessed as increase in latency to tonic seizures at 24.4 micromol/kg, po pretreated for 1 hr followed by PTZ addition and measured after 60 mins (reference value: 77 +/- 13.4 sec). The data set is classed as functional. Conditions: dose 24.4 µmol/kg, time 120 min, 2 h.

The nature of data set [3]: Drug concentration in Sprague-Dawley rat brain at 24.4 micromol/kg, IG measured after 0.5 hrs by LC-MS/MS analysis. The data set is classed as ADME, tissue-based. Particulars: in vivo, po, dose 24.4 µmol/kg.
Data set [4] concerns the target T2, GABA-A receptor; alpha-1/beta-2/gamma-2 (Homo sapiens, UniProt P14867+P18507+P47870).
T2 sequence (P14867 whole entry): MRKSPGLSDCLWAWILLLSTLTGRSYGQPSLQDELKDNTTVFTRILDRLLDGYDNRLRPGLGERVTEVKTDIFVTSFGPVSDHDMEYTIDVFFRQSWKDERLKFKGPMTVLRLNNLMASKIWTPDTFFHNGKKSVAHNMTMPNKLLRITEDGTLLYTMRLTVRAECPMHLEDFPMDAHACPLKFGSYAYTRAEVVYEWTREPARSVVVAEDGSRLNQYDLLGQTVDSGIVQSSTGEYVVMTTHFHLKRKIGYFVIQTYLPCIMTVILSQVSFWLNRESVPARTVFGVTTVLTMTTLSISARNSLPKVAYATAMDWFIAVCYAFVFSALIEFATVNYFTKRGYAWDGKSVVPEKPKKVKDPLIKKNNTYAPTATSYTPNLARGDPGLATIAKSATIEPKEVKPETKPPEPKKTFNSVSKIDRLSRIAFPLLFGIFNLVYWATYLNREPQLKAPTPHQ
T2 sequence (P47870 whole entry): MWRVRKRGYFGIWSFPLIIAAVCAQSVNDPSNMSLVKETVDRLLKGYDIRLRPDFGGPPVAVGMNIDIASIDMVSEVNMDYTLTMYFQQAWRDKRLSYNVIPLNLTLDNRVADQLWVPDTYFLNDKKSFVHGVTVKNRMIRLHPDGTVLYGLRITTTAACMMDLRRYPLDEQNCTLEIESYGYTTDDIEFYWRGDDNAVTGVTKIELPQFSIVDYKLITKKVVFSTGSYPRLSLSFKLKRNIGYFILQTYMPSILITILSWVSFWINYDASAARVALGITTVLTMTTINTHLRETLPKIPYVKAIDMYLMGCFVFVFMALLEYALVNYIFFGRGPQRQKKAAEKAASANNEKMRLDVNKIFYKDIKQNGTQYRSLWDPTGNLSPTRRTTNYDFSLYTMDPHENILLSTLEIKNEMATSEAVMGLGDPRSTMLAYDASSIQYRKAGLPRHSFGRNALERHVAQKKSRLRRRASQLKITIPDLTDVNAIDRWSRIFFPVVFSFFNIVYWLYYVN
T2 sequence (P18507 whole entry): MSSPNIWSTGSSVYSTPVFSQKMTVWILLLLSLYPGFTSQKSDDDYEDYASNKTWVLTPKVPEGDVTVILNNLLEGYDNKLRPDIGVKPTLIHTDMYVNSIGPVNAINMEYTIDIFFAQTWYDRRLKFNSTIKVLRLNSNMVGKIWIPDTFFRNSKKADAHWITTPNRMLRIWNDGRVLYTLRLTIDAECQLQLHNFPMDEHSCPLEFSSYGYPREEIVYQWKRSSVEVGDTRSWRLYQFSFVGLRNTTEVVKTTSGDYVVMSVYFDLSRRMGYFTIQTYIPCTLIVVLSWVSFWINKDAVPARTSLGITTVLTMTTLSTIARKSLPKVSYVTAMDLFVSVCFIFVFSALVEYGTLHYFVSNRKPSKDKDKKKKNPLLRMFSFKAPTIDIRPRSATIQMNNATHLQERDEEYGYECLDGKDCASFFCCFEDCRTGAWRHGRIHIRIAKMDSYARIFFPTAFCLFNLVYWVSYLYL
The data set is described as follows: Positive allosteric modulation of synaptic alpha1beta2gamma2 GABA-A receptor (unknown origin) transfected in LTK cells assessed as potentiation of GABA-induced peak current amplitude at -80 mV holding potential preincubated for 30 secs followed by GABA stimulation for 2 secs by Q-patch assay. The data set is classed as cell-based.

Data set [5] has as its target GABA-A receptor; anion channel. The data set is described as follows: Inhibition of [35S]TBPS binding to GABA-A receptor in Sprague-Dawley rat brain cortical membrane incubated for 90 mins by liquid scintillation spectrometry. The data set is classed as cell membranes, Cortex.
In the next data set the target is Cytochrome P450 3A4 (Homo sapiens, UniProt P08684). Put plainly: Inhibition of CYP3A4 (unknown origin). The data set is classed as ADME.
Sequence of Cytochrome P450 3A4 (P08684 whole entry): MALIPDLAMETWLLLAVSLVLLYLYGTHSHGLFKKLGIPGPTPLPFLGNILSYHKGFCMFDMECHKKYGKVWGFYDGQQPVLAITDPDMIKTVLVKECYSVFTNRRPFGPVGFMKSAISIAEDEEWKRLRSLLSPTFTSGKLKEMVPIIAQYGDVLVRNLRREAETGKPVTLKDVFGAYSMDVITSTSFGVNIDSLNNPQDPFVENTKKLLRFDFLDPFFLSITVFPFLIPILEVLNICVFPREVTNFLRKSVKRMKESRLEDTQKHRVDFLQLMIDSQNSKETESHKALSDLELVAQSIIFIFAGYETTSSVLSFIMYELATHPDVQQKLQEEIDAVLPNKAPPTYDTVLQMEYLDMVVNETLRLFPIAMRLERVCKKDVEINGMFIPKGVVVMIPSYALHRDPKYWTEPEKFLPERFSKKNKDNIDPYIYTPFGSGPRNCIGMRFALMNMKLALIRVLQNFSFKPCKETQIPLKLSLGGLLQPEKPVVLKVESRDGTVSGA
A short description of data set [6]: Ratio of Cmax in IG dosed Sprague-Dawley rat brain to plasma. The format is ADME, organism-based. Conditions: brain and plasma, po, read-out: BPR.
The nature of data set [7]: Toxicity in male Sprague-Dawley rat assessed as risk of consciousness loss by measuring time for first loss of righting reflex at 36.6 micromol/kg, ip measured within 4 hrs. The data set is classed as organism-based. Particulars: in vivo, dose 36.6 µmol/kg.
Data set [8] is described as follows: Genotoxicity in Salmonella typhimurium TA1535 assessed as induction of reverse mutation in presence of rat liver S9 fraction. The format is toxicity, subcellular. Particulars: salmonella enterica subsp. enterica serovar typhimurium.
Data set [9] concerns Rattus norvegicus. Put plainly: Antiseizure activity in PTZ-induced male Sprague-Dawley rat acute seizure model assessed as increase in latency to tonic seizures at 23.2 micromol/kg, po pretreated for 2 hrs followed by PTZ addition and measured after 60 mins (reference value: 77 +/- 13.4 sec). The data set is classed as functional. Particulars: dose 23.2 µmol/kg, time 180 min, 3 h.

Data set [10] in a line: Genotoxicity in Salmonella typhimurium TA98 assessed as induction of reverse mutation in presence of rat liver S9 fraction. The data set is classed as toxicity, subcellular. Particulars: salmonella enterica subsp. enterica serovar typhimurium.
A short description of data set [11]: Genotoxicity in Salmonella typhimurium TA97 assessed as induction of reverse mutation in presence of rat liver S9 fraction. The data set is classed as toxicity, subcellular. Particulars: salmonella enterica subsp. enterica serovar typhimurium.

The structures appear in SMILES notation.

With `C[C@@]1(O)CC[C@H]2[C@H](CC[C@@H]3[C@@H]2CC[C@]2(C)[C@@H](C(=O)Cn4cc(C#N)cn4)CC[C@@H]32)C1` [ZURANOLONE], the IC50 against Cytochrome P450 1A2 was greater than 30 µM; in data set [5], 0.007 µM; on Cytochrome P450 3A4, greater than 30 µM. In addition, the Time in the data set with Rattus norvegicus [1] worked out at 1639 s; with Rattus norvegicus [2], 2850 s. Moreover, the Ct in data set [3] turned out to be 3103 nmol/kg. In data set [4], the EC50 came out at 0.152 µM.

Take `C[C@@]1(O)CC[C@H]2[C@H](CC[C@@H]3[C@@H]2CC[C@]2(C)[C@@H](C(=O)Cn4cnn(-c5cc(F)nc(F)c5)c4=O)CC[C@@H]32)C1`: in data set [6], the Kp was 1.5. In addition, the IC50 at Cytochrome P450 1A2 and on Cytochrome P450 3A4 was greater than 30 µM each time. Further, the Time in [7] is 57 min; in the data set on Rattus norvegicus [9], 3600 s. For the same molecule, the Activity entry in data set [8], in [10] and in data set [11] was “Non-Toxic” each time. In data set [3], this molecule yielded a Ct of 2320 nmol/kg. In addition, in [4], the EC50 was found to be 0.141 µM.
